Here are results for 20 compounds from patent publication US20090170812A1, “Transcription factor modulating compounds and methods of use thereof” (priority 2006, published 2009).

One data set deals with LcrF (VirF) (Yersinia pestis, UniProt P28808). Kind of data set: biochemical. It is filed as binding, Y. pseudotuberculosis.
The subject of the next data set is P. aeruginosa. Kind of data set: Whole cell assay: cytotoxicity of P. aeruginosa toward J774 cells (CytoTox 96, LDH release). The conditions noted are these: percent cytotoxicity of treated P. aeruginosa toward J774 cells.
Another data set concerns the target T1, ExsA (Pseudomonas aeruginosa, UniProt P26993).
T1 construct: made in house
T1 sequence (P26993 1-278): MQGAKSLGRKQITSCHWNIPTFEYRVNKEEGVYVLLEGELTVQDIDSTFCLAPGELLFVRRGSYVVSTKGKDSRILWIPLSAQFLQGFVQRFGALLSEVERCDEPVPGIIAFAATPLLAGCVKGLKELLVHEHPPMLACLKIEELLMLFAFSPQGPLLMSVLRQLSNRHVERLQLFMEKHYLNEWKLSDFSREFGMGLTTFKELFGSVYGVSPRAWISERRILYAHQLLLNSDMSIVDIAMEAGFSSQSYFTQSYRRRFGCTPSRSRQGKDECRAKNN
Kind of data set: In vitro activity of Mar inhibitors against ExsA: cell-free DNA binding assay. Conditions: purified ExsA from P. aeruginosa, inhibition of DNA binding in vitro.

Data set [1] concerns Yersinia pseudotuberculosis.

Bounds are passed on as bounds.

LcrF (VirF), sequence (P28808 whole entry, looked up): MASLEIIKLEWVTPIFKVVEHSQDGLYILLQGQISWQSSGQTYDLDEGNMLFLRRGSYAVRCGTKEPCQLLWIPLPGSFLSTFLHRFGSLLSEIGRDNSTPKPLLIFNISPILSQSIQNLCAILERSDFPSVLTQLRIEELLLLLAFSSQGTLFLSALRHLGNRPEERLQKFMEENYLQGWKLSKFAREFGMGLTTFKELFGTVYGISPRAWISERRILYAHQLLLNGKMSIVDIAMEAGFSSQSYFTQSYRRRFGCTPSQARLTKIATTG

Turning to `CCOP(=O)(COn1c(-c2ccc(NC(=O)/C=C/c3ccc(F)cc3)cc2)nc2ccc([N+](=O)[O-])cc21)OCC` [Compound AS, (2-{4-[(E)-3-(4-Fluoro-phenyl)-acryloylamino]-phenyl}-6-nitro-benzoimidazol-1-yloxymethyl)-phosphonic Acid Diethyl Ester], the EC50 is greater than 25.1 µM on LcrF (VirF) and 10.1 to 25 µM on ExsA. For the same compound, the “Cytotoxicity at 50 μg/mL Pseudomonas” value with P. aeruginosa is given as “* (percent cytotoxicities above 75% at 50 mg/mL)”. The “Cytotoxicity at 50 μg/mL Yersinia” value in data set [1] is “* (key: *: percent cytotoxicity above 75% at 50 μg/mL; **: cytotoxicities below 75% at 50 μg/mL)”.

`O=C(/C=C/c1ccc(F)cc1)Nc1ccc(-c2nc3ccc([N+](=O)[O-])cc3n2O)cc1F` [Compound AZ, (E)-N-[2-Fluoro-4-(1-hydroxy-6-nitro-1H-benzoimidazol-2-yl)-phenyl]-3-(4-fluoro-phenyl)-acrylamide]: the EC50 on LcrF (VirF) and at ExsA was 10.1 to 25 µM throughout. Besides, the “Cytotoxicity at 50 μg/mL Pseudomonas” value with P. aeruginosa is on record as “* (percent cytotoxicities above 75% at 50 mg/mL)”. In addition, in data set [1], the “Cytotoxicity at 50 μg/mL Yersinia” value was “* (key: *: percent cytotoxicity above 75% at 50 μg/mL; **: cytotoxicities below 75% at 50 μg/mL)”.

On to `N#Cc1ccc2nc(-c3ccc(NC(=O)/C=C/c4ccccc4)cc3)n(O)c2c1` [Compound A], for which the EC50 at LcrF (VirF) and at ExsA was 10.1 to 25 µM each time. In addition, the “Cytotoxicity at 50 μg/mL Pseudomonas” value in the data set on P. aeruginosa is reported as “* (percent cytotoxicities above 75% at 50 mg/mL)”. In addition, the “Cytotoxicity at 50 μg/mL Yersinia” value in data set [1] is given as “* (key: *: percent cytotoxicity above 75% at 50 μg/mL; **: cytotoxicities below 75% at 50 μg/mL)”.

For the compound `CC(=O)c1ccc(C(=O)Nc2ccc(-c3nc4ccc([N+](=O)[O-])cc4n3O)cc2F)cc1` [Compound BA, 4-Acetyl-N-[2-fluoro-4-(1-hydroxy-6-nitro-1H-benzoimidazol-2-yl)-phenyl]-benzamide], the EC50 at LcrF (VirF) was 10.1 to 25 µM; on ExsA, less than 10 µM. The “Cytotoxicity at 50 μg/mL Pseudomonas” value in the data set on P. aeruginosa is listed as “* (percent cytotoxicities above 75% at 50 mg/mL)”. In addition, the “Cytotoxicity at 50 μg/mL Yersinia” value in data set [1] is listed as “* (key: *: percent cytotoxicity above 75% at 50 μg/mL; **: cytotoxicities below 75% at 50 μg/mL)”.

Turning to `Cc1cc2nc(-c3ccc(NC(=O)/C=C/c4ccc(F)cc4)cc3)n(O)c2cc1[N+](=O)[O-]` [Compound BC, (E)-3-(4-Fluoro-phenyl)-N-[4-(1-hydroxy-5-methyl-6-nitro-1H-benzoimidazol-2-yl)-phenyl]-acrylamide], the EC50 at LcrF (VirF) and on ExsA was less than 10 µM each time. Further, the “Cytotoxicity at 50 μg/mL Pseudomonas” value in the data set on P. aeruginosa is recorded as “** (cytotoxicities below 75% at 50 mg/mL)”. For the same compound, the “Cytotoxicity at 50 μg/mL Yersinia” value in data set [1] is “** (key: *: percent cytotoxicity above 75% at 50 μg/mL; **: cytotoxicities below 75% at 50 μg/mL)”.

For the compound `O=C(/C=C/c1ccc(-n2cncn2)cc1)Nc1ccc(-c2nc3ccc([N+](=O)[O-])cc3n2O)cc1` [Compound BI, (E)-N-[4-(1-Hydroxy-6-nitro-1H-benzoimidazol-2-yl)-phenyl]-3-(4-[1,2,4]triazol-1-yl-phenyl)-acrylamide], the values for the EC50 on LcrF (VirF) and on ExsA were greater than 25.1 µM and less than 10 µM, respectively. In addition, the “Cytotoxicity at 50 μg/mL Pseudomonas” value in the data set on P. aeruginosa is given as “** (cytotoxicities below 75% at 50 mg/mL)”. In addition, the “Cytotoxicity at 50 μg/mL Yersinia” value in data set [1] is “** (key: *: percent cytotoxicity above 75% at 50 μg/mL; **: cytotoxicities below 75% at 50 μg/mL)”.

With `CCOc1cc2nc(-c3ccc(NC(=O)/C=C/c4ccc(F)cc4)cc3)n(O)c2cc1[N+](=O)[O-]` [Compound BJ, (E)-N-[4-(5-Ethoxy-1-hydroxy-6-nitro-1H-benzoimidazol-2-yl)-phenyl]-3-(4-fluoro-phenyl)-acrylamide], the EC50 on LcrF (VirF) is 10.1 to 25 µM; on ExsA, less than 10 µM. Besides, the “Cytotoxicity at 50 μg/mL Pseudomonas” value in the data set with P. aeruginosa is recorded as “** (cytotoxicities below 75% at 50 mg/mL)”. In data set [1], the “Cytotoxicity at 50 μg/mL Yersinia” value is “** (key: *: percent cytotoxicity above 75% at 50 μg/mL; **: cytotoxicities below 75% at 50 μg/mL)”.

For `Cc1cc2nc(-c3ccc(NC(=O)c4ccc(-c5cnco5)cc4)cc3)n(O)c2cc1[N+](=O)[O-]` [Compound BL, N-[4-(1-Hydroxy-5-methyl-6-nitro-1H-benzoimidazol-2-yl)-phenyl]-4-oxazol-5-yl-benzamide], the EC50 is greater than 25.1 µM on LcrF (VirF) and less than 10 µM on ExsA. Further, the “Cytotoxicity at 50 μg/mL Pseudomonas” value in the data set with P. aeruginosa is listed as “** (cytotoxicities below 75% at 50 mg/mL)”. The “Cytotoxicity at 50 μg/mL Yersinia” value in data set [1] is given as “** (key: *: percent cytotoxicity above 75% at 50 μg/mL; **: cytotoxicities below 75% at 50 μg/mL)”.

On to `CN(C)c1cc2nc(-c3ccc(NC(=O)/C=C/c4ccc(F)cc4)cc3)n(O)c2cc1[N+](=O)[O-]` [Compound BN, N-[4-(5-Dimethylamino-1-hydroxy-6-nitro-1H-benzoimidazol-2-yl)-phenyl]-3-(4-fluorocinnamyl)-amide], for which the EC50 on LcrF (VirF) is greater than 25.1 µM; on ExsA, 10.1 to 25 µM. Also, in the data set on P. aeruginosa, the “Cytotoxicity at 50 μg/mL Pseudomonas” value is listed as “** (cytotoxicities below 75% at 50 mg/mL)”. For the same compound, the “Cytotoxicity at 50 μg/mL Yersinia” value in data set [1] is reported as “** (key: *: percent cytotoxicity above 75% at 50 μg/mL; **: cytotoxicities below 75% at 50 μg/mL)”.

As to `N#Cc1ccc2nc(-c3ccc(NC(=O)/C=C/c4ccc(F)cc4)cc3)n(O)c2c1` [Compound B], the EC50 on LcrF (VirF) and at ExsA was less than 10 µM each time. For the same compound, the “Cytotoxicity at 50 μg/mL Pseudomonas” value with P. aeruginosa is “** (cytotoxicities below 75% at 50 mg/mL)”. In data set [1], the “Cytotoxicity at 50 μg/mL Yersinia” value is “** (key: *: percent cytotoxicity above 75% at 50 μg/mL; **: cytotoxicities below 75% at 50 μg/mL)”.

Consider `CC(=O)c1ccc(C(=O)Nc2ccc(-c3nc4ccc(C#N)cc4n3O)cc2)cc1` [Compound C], for which the EC50 on LcrF (VirF) was greater than 25.1 µM; at ExsA, less than 10 µM. In addition, in the data set on P. aeruginosa, the “Cytotoxicity at 50 μg/mL Pseudomonas” value is given as “** (cytotoxicities below 75% at 50 mg/mL)”. Also, in data set [1], the “Cytotoxicity at 50 μg/mL Yersinia” value is on record as “** (key: *: percent cytotoxicity above 75% at 50 μg/mL; **: cytotoxicities below 75% at 50 μg/mL)”.

`N#Cc1ccc(C(=O)Nc2ccc(-c3nc4ccc(C#N)cc4n3O)cc2)cc1` [D]: the EC50 on LcrF (VirF) and at ExsA was less than 10 µM in each case. Moreover, the “Cytotoxicity at 50 μg/mL Pseudomonas” value with P. aeruginosa was “* (percent cytotoxicities above 75% at 50 mg/mL)”. In addition, the “Cytotoxicity at 50 μg/mL Yersinia” value in data set [1] is recorded as “** (key: *: percent cytotoxicity above 75% at 50 μg/mL; **: cytotoxicities below 75% at 50 μg/mL)”.

With `Cc1ccc(/C=C/C(=O)Nc2ccc(-c3nc4ccc(C#N)cc4n3O)cc2)cc1` [E], the EC50 was 10.1 to 25 µM on LcrF (VirF) and less than 10 µM on ExsA. Moreover, the “Cytotoxicity at 50 μg/mL Pseudomonas” value in the data set with P. aeruginosa is “* (percent cytotoxicities above 75% at 50 mg/mL)”. For the same compound, the “Cytotoxicity at 50 μg/mL Yersinia” value in data set [1] was “** (key: *: percent cytotoxicity above 75% at 50 μg/mL; **: cytotoxicities below 75% at 50 μg/mL)”.

For the compound `O=C(Nc1ccc(-c2nc3ccc([N+](=O)[O-])cc3n2O)cc1)/C(=C/c1ccccc1)c1ccccc1` [F], the EC50 at LcrF (VirF) was less than 10 µM; on ExsA it was 10.1 to 25 µM. For the same compound, the “Cytotoxicity at 50 μg/mL Pseudomonas” value in the data set with P. aeruginosa was “** (cytotoxicities below 75% at 50 mg/mL)”. Also, in data set [1], the “Cytotoxicity at 50 μg/mL Yersinia” value is “* (key: *: percent cytotoxicity above 75% at 50 μg/mL; **: cytotoxicities below 75% at 50 μg/mL)”.

For `O=C(Nc1ccc(-c2nc3ccc([N+](=O)[O-])cc3n2O)cc1)/C(F)=C/c1ccccc1` [G], the EC50 on LcrF (VirF) was 10.1 to 25 µM; on ExsA, less than 10 µM. Moreover, in the data set on P. aeruginosa, the “Cytotoxicity at 50 μg/mL Pseudomonas” value is “** (cytotoxicities below 75% at 50 mg/mL)”. The “Cytotoxicity at 50 μg/mL Yersinia” value in data set [1] was “* (key: *: percent cytotoxicity above 75% at 50 μg/mL; **: cytotoxicities below 75% at 50 μg/mL)”.

For `COc1ccc(/C=C/C(=O)Nc2ccc(-c3nc4ccc([N+](=O)[O-])cc4n3O)cc2)c(OC)c1` [J], the EC50 on LcrF (VirF) is greater than 25.1 µM; at ExsA, less than 10 µM. In addition, the “Cytotoxicity at 50 μg/mL Pseudomonas” value in the data set on P. aeruginosa is reported as “* (percent cytotoxicities above 75% at 50 mg/mL)”. Also, in data set [1], the “Cytotoxicity at 50 μg/mL Yersinia” value is listed as “** (key: *: percent cytotoxicity above 75% at 50 μg/mL; **: cytotoxicities below 75% at 50 μg/mL)”.

Regarding `N#Cc1ccc2nc(-c3ccc(NC(=O)c4ccc(F)cc4)cc3)n(O)c2c1` [K], the EC50 at LcrF (VirF) was greater than 25.1 µM; at ExsA, 10.1 to 25 µM. Moreover, the “Cytotoxicity at 50 μg/mL Pseudomonas” value in the data set on P. aeruginosa is reported as “* (percent cytotoxicities above 75% at 50 mg/mL)”. Further, the “Cytotoxicity at 50 μg/mL Yersinia” value in data set [1] is on record as “* (key: *: percent cytotoxicity above 75% at 50 μg/mL; **: cytotoxicities below 75% at 50 μg/mL)”.

Consider `O=C(Nc1ccc(-c2nc3ccc([N+](=O)[O-])cc3n2O)cc1)c1ccc(F)c(F)c1` [P], for which the EC50 at LcrF (VirF) and on ExsA was 10.1 to 25 µM in each case. Moreover, the “Cytotoxicity at 50 μg/mL Pseudomonas” value in the data set with P. aeruginosa is listed as “* (percent cytotoxicities above 75% at 50 mg/mL)”. Besides, in data set [1], the “Cytotoxicity at 50 μg/mL Yersinia” value is “* (key: *: percent cytotoxicity above 75% at 50 μg/mL; **: cytotoxicities below 75% at 50 μg/mL)”.

On to `O=C(Nc1ccc(-c2nc3ccc([N+](=O)[O-])cc3n2O)cc1)c1ccc(-c2cncnc2)cc1` [R], for which the results for the EC50 on LcrF (VirF) and on ExsA were greater than 25.1 µM and 10.1 to 25 µM, respectively. The “Cytotoxicity at 50 μg/mL Pseudomonas” value in the data set on P. aeruginosa is given as “* (percent cytotoxicities above 75% at 50 mg/mL)”. Besides, in data set [1], the “Cytotoxicity at 50 μg/mL Yersinia” value is listed as “** (key: *: percent cytotoxicity above 75% at 50 μg/mL; **: cytotoxicities below 75% at 50 μg/mL)”.

As to `Cc1cc(C(=O)Nc2ccc(-c3nc4ccc([N+](=O)[O-])cc4n3O)cc2)ccc1F` [S], the EC50 at LcrF (VirF) and at ExsA was 10.1 to 25 µM each time. The “Cytotoxicity at 50 μg/mL Pseudomonas” value in the data set on P. aeruginosa is recorded as “* (percent cytotoxicities above 75% at 50 mg/mL)”. The “Cytotoxicity at 50 μg/mL Yersinia” value in data set [1] is “* (key: *: percent cytotoxicity above 75% at 50 μg/mL; **: cytotoxicities below 75% at 50 μg/mL)”.
